Experiments:
hERG current = biological target: T1, hERG current (Homo sapiens, UniProt Q12809); assay: Cardiotoxicity assay (hERG); assay type: cell-based; settings: human embryonic kidney cells
T1 construct: expressed in transfected cells; host or cells: human embryonic kidney cells
Experimental: The effects of SRP-001 on hERG current amplitude at physiologic temperatures were evaluated over a nominal concentration range of 0.1 μM to […]. A vehicle group (10% DMSO) was included in the study for comparison, and dofetilide (10 nM) was used as a reference substance. The vehicle and positive controls indicated appropriate sensitivity of the test systems. […] Next, the potential acute effects of oral SRP-001 on cardiovascular function in conscious telemetered beagle dogs was done using a Latin Square design; 4 male naïve beagle dogs each received vehicle (10% DMSO: 10% labrasol: 80% PEG400) and three doses (30, 90, and 150 mg/kg) of SRP-001 nanosuspension by oral gavage. […] A single dose was administered on the day of dosing, and a washout period of seven days was allowed between doses. One-min means of hemodynamic parameters, as well as ECG parameters and body temperature, were measured for a period of at least 24 h. One-min tracings of the ECGs were obtained at 15 min prior to dosing and at 30 min, 1, 2, 4, 8, 12, and 24 h post-dose. Qualitative evaluation of the ECGs was done by a board-certified veterinary cardiologist.

[1] = 28-day oral toxicity study with 14-day recovery (GLP); assay type: in vivo, dog; settings: both sexes, Beagle, dog, in vivo, oral; given T.I.D. for 28 days; read-out: No adverse effect level (NOAEL)
Experimental: (§1) SRP-001 was supplied by Olon Ricerca Bioscience as an off-white powder. The test article was then prepared into dosing suspensions for oral administration via gavage (Calvert Labs/Altasciences, Scott Township, PA USA). Thirty-two experimentally naïve Beagle dogs (16 males and 16 females), 8–9 months old and weighing 6.7–10.5 kg for males and females at the outset of the study, were administered 0, 165, 330, or 495 mg/kg/d. Animals were dosed three times daily (3–5 h between doses) for 28 consecutive days. Prior to this dosing schedule, the dosing was initiated with once daily dosing at 0, 100, 300, or 900 mg/kg at a dose volume of 5 to 10 ml/kg. Due to adverse clinical signs noted following dosing of all groups at a dose volume of 10 ml/kg, dosing of the animals was suspended on day 2 for males and day 1 for females. The study was restarted with T.I.D. dosing in lower dose volume to reduce vehicle-related toxicity.
(§2) In-life data from the initial start of the study using once daily dosing were not included in the report but are maintained in the study file. Following the restart of the study, the study was conducted as follows. Mortality/morbidity was performed twice daily and once prior to the scheduled sacrifice. Animals were observed prior to each dose administration and 1–3 h after each dose administration. Animals were also observed once daily on non-dosing days and once prior to scheduled sacrifice. Body weights were recorded prior to randomization/selection, prior to the first dose administration on day 1 and weekly thereafter. Food consumption was determined daily. Ophthalmology examinations and electrocardiograms were performed before treatment initiation and during the last week of dosing. Blood for evaluation of hematology, coagulation and clinical chemistry and urine for urinalysis was collected prior to treatment initiation and on days 29 and 43. Blood for toxicokinetic evaluation was collected at selected timepoints on days 1 and 28. All surviving animals were sacrificed on day 29 or day 43. Selected tissues were harvested at necropsy, selected organs weighed, and selected tissues evaluated microscopically.
(§3) Due to the limited magnitude of the changes in hematology parameters and the corresponding changes in reticulocytes, this finding was not considered adverse.
(§4) This finding was indicative of the biliary system starting to be overwhelmed and was considered adverse. Other microscopic findings of the liver included Kupffer cell pigment, Kupffer cell erythrophagocytosis, and Kupffer cell hypertrophy/hyperplasia. The Kupffer cell changes were thought to be, at least in part, due to phagocytosis of erythrocytes resulting in the accumulation of cytoplasmic pigment and increased demand for Kupffer cells resulting in hypertrophy/hyperplasia. These microscopic changes correlated with increased liver organ weights. Microscopic evaluation also identified thyroid gland follicular cell hypertrophy.
(§5) Only microscopic changes in Kupffer cell pigment and erythrophagocytosis and minimal increased erythroid cellularity of the bone marrow were still present in Group-4 animals following the recovery period. Exposure to SRP-001 was dose-dependent and generally dose-proportional to greater than dose-proportional from 165 to 330 mg/kg/d and less than dose-proportional from 330 to 495 mg/kg/d. Exposure to SRP-001 following 28 consecutive days of oral dosing was 2 to 5 times less than exposure observed on day 1. Based on the clinical signs, microscopic changes, and clinical pathology changes, the no-adverse-effect level for SRP-001 was 330 mg/kg/d when given T.I.D. for 28 d.

beagle dogs = assay: as above; assay type: in vivo, dog
Experimental: as §1, §2, §3, §4, §5

dog = assay: Maximum tolerated dose study, single dose (non-GLP); assay type: in vivo
Experimental: To determine the appropriate doses, maximum tolerated dose studies (non-GLP) were conducted prior to the definitive GLP systemic toxicity studies. SRP-001 was evaluated by a full battery of GLP-compliant toxicity studies. Systemic toxicity was evaluated in Sprague–Dawley rats and Beagle dogs by oral administration over 28 days (Supplementary Fig. 19 and Supplementary Table 2). Importantly, no treatment-related adverse effects were seen during 28 days of daily oral doses of SRP-001 in rats at doses up to 1500 mg/kg/day or in dogs at doses up to 330 mg/kg/day.

[2] = both, Beagle, dog, in vivo, po, 28 d

T1 sequence (Q12809 whole entry): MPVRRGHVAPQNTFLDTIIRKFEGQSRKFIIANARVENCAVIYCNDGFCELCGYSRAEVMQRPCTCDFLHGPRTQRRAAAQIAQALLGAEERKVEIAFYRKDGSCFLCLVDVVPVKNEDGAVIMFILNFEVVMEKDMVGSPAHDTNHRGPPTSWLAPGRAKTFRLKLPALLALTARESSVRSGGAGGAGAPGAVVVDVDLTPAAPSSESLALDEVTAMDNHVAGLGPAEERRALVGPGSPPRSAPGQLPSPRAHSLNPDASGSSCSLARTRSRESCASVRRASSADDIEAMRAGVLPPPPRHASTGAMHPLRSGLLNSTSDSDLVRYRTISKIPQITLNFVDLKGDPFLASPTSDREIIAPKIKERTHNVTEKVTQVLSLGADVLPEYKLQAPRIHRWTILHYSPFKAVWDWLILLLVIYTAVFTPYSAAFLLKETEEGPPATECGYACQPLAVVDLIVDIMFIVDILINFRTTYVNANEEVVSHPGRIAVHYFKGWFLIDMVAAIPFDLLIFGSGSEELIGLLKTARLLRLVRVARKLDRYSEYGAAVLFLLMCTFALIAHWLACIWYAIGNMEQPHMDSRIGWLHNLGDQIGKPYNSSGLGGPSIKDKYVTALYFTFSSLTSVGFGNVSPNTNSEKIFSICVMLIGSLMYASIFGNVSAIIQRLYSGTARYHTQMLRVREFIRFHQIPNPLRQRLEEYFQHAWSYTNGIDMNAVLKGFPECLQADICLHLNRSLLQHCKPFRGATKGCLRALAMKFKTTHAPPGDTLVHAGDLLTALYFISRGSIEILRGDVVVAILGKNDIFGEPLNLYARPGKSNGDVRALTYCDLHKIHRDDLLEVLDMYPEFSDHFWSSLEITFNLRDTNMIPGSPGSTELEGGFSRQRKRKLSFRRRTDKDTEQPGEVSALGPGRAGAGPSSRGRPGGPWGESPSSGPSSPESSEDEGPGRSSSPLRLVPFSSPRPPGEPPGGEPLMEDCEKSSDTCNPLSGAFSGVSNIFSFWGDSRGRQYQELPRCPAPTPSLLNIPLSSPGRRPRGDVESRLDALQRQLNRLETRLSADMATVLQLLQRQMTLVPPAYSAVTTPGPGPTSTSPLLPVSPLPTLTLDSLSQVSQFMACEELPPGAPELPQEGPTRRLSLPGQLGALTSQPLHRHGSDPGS

## CCN(CC)C(=O)c1ccccc1S(=O)(=O)NCC(=O)Nc1ccc(O)cc1 [SRP-001, N,N-diethyl-2-[[2-(4-hydroxyanilino)-2-oxo-ethyl]sulfamoyl]benzamide]
hERG current
  Signal in in vitro hERG assay: absent relevant signal
[1]
  NOAEL at 28 d: 330 mg/kg/day
Beagle dogs; 28 days
  Body weights, food consumption, ophthalmology, electrocardiology, coagulation, urinalysis: No SRP-001 related changes
Beagle dogs; both, Beagle, dog, in vivo, 14 d
  Reversibility after 14-day recovery period: nearly all SRP-001-related changes observed on day 29 were reversible
Beagle dogs; [2]
  Doses without treatment-related adverse effects: up to 330 mg/kg/day
  Exposure after 28 consecutive days relative to day 1: 2-5 times less
Beagle dogs; dog, in vivo
  Clinical chemistry parameters: increases in triglycerides and alkaline phosphatase and decreases in cholesterol
  Clinical signs: emesis, loose feces, and salivation
  Hematology parameters: decreases in red blood cells, hemoglobin, hematocrit, and mean corpuscular hemoglobin concentration
  Reversibility after 14-day recovery period: nearly all SRP-001 related changes observed on Day 29 were reversible
dog
  Single doses that did not result in any mortality: ≤ 1200 mg/kg
